2 compounds from patent US11820754B2, “Polymorphs of an SSAO inhibitor” (Eli Lilly and Company, priority 2020, dated 2023) can be followed below.

SMILES strings stand for the structures.

The data set can be described thus: Competitive slurry study (Form I vs Form II, XRPD of wet cake). In kind it is physicochemical. The conditions noted are these: for XRPD Pattern (wet cake): 800 rpm. As to the method:
XRPD analyses were performed with techniques and equipments known in the art with Cu K-alpha radiation.
Competitive slurry experiments were performed at 25° C. and 50° C. Saturated solutions of Form I in ACN and acetone at 25° C. and 50° C. were prepared. About 15 mg of Form I and Form II were weighted into the solutions respectively, and the suspensions were slurried for 1 or 3 days at 800 rpm.

For `COC1CCN(c2ncc(OC/C(=C/F)CN)cn2)CC1.Cc1ccc(S(=O)(=O)O)cc1` [Form I + Form II], the “Conversion of form mixture in slurry, as determined by XRPD” value (25 °C and 50 °C, ACN and acetone, slurried 1 or 3 days) is “completely converted to Form II”. The “XRPD Pattern (wet cake)” value runs as follows: (ACN, 25 °C, slurry time 1 day) “Form I + Form II”; (ACN, 25 °C, slurry time 3 days) “Form II”; (ACN, 50 °C, slurry time 1 day) “Form II”; (Acetone, 25 °C, slurry time 1 day) “Form II”; (Acetone, 50 °C, slurry time 1 day) “Form I + Form II”; (Acetone, 50 °C, slurry time 3 days) “Form II”.
As for `COC1CCN(c2ncc(OC/C(=C/F)CN)cn2)CC1.Cc1ccc(S(=O)(=O)O)cc1` [Form II, (2E)-3-fluoro-2-({[2-(4-methoxypiperidin-1-yl)pyrimidin-5-yl]oxy}methyl)prop-2-en-1-aminium 4-methylbenzenesulfonate], the “Relative thermodynamic stability of polymorphic forms” value (versus Form I, at a temperature of 50 °C or below) is listed as “more thermodynamically stable”.
